Calls of active or inactive are those of the source. The rule behind the calls is not given here.
Legend:
[1] = Intrinsic clearance in human liver microsomes assessed per mg of protein in presence of NADPH by UPLC-MS analysis; format: ADME, Microsome; details: read-out: CLH
[2] = Drug metabolism in Sprague-Dawley rat feces assessed as N-methyl-2-(3'-propoxy-5,5'-bi(1,2,4-triazin)-3-yloxy)ethanamine formation at 3 mg/kg, iv by high-resolution mass spectrometry; format: ADME, organism-based; details: in vivo
[3] = Drug metabolism in Sprague-Dawley rat feces assessed as oxygenated metabolite M+16(2) formation at 10 mg/kg, po by high-resolution mass spectrometry; format: ADME, organism-based; details: in vivo
[4] = Drug recovery in bile cannulated Sprague-Dawley rat bile at 3 mg/kg, iv measured up to 4 hrs by LC-MS analysis; format: ADME, organism-based; details: read-out: Drug recovery
Plasmodium falciparum [5] = test: Antiplasmodial activity against Plasmodium falciparum K1 by 3H-incorporation growth inhibition assay; format: functional, organism-based; details: pooled result: one value given for 11 cell lines, strains, targets or settings
[6] = AUC (0 to infinity) in Swiss mouse plasma at 2.7 mg/kg, iv measured up to 24 hrs; format: ADME, organism-based; set-up: route intravenous, dose 2.7 mg/kg, time <=24
[7] = Drug metabolism in rat liver microsomes assessed as formation of cleavage product M-69 by LC-MS/MS(CID) analysis; format: ADME, Microsome
[8] = Drug excretion in Sprague-Dawley rat urine 3 mg/kg, iv measured up to 24 hrs by LC-MS analysis; format: ADME, organism-based; details: read-out: Drug excretion
[9] = Drug metabolism in rat liver microsomes assessed as oxygenated metabolite M+16(1) formation by LC-MS/MS(CID) analysis; format: ADME, Microsome
[10] = Kinetic solubility of compound at pH 6.5 by nephelometry; format: physicochemical; details: buffer, read-out: Kinetic_solubility
[11] = Clearance in Sprague-Dawley rat plasma at 3 mg/kg, iv measured up to 24 hrs by LC-MS analysis; format: ADME, organism-based
[12] = Cmax in Swiss mouse plasma at 27 mg/kg, po measured up to 24 hrs by LC-MS analysis; format: ADME, organism-based; set-up: route oral, dose 27 mg/kg, time <=24
Plasmodium = test: Antimalarial activity against Plasmodium assessed as transmission blocking potential by measuring reduction in female gamete formation by dual gamete formation assay; format: functional, organism-based
[13] = AUC(0 to infinity) in Sprague-Dawley rat plasma at 3 mg/kg, iv measured up to 24 hrs by LC-MS analysis; format: ADME, organism-based; set-up: route intravenous, dose 3 mg/kg, time <=24
Plasmodium berghei = test: Antiplasmodial activity against Plasmodium berghei ANKA infected in po dosed Swiss mouse administered at 2 hrs post infection and measured on day 4 by Peter's 4-day test; format: functional
[14] = Tmax in Sprague-Dawley rat plasma at 10 mg/kg, po administered via gavage measured up to 24 hrs by LC-MS analysis; format: ADME, organism-based
[15] = Drug metabolism in mouse hepatocytes assessed as oxygenated metabolite M+16(1) formation by LC-MS/MS(CID) analysis; format: ADME, cell-based, Hepatocyte
[16] = Drug metabolism in human liver microsomes assessed as formation of cleavage product M-69 by LC-MS/MS(CID) analysis; format: ADME, Microsome
[17] = Drug metabolism in rat hepatocytes assessed as oxygenated metabolite M+16(1) formation by LC-MS/MS(CID) analysis; format: ADME, cell-based, Hepatocyte
[18] = Drug metabolism in mouse liver microsomes assessed as oxygenated metabolite N-methyl-2-(3'-propoxy-5,5'-bi(1,2,4-triazin)-3-yloxy)ethanamine oxide formation by LC-MS/MS(CID) analysis; format: ADME, Microsome
Plasmodium falciparum [19] = test: microbe, parasite or virus in culture; details: 3D7, 72 h
Description: Antimalarial activity against Plasmodium falciparum 3D7 infected in human red blood cells after 72 hrs by DAPI-staining based assay

[20] = Apparent half life in Sprague-Dawley rat at 3 mg/kg administered as iv infusion for 10 mins measured up to 24 hrs by LC-MS analysis; format: ADME, organism-based; details: in vivo
[21] = Apparent blood clearance in Sprague-Dawley rat at 3 mg/kg, iv measured up to 24 hrs by LC-MS analysis; format: ADME, organism-based; details: read-out: CL(app)
[22] = Drug metabolism in Sprague-Dawley rat urine assessed as M-32 metabolite formation at 10 mg/kg, po by high-resolution mass spectrometry; format: ADME, organism-based; details: in vivo
[23] = Drug metabolism in Sprague-Dawley rat urine assessed as oxygenated metabolite M+16(2) formation at 3 mg/kg, iv by high-resolution mass spectrometry; format: ADME, organism-based; details: in vivo
[24] = Drug metabolism in mouse liver microsomes assessed as formation of cleavage product M-69 by LC-MS/MS(CID) analysis; format: ADME, Microsome
Cytochrome P450 3A4 = Cytochrome P450 3A4 (Homo sapiens, UniProt P08684); test: Inhibition of CYP3A4 in human liver microsomes assessed as reduction in midazolam 1-hydroxylase activity by . high-pressure liquid chromatography-tandem mass spectrometry; format: ADME
Chain of Cytochrome P450 3A4 (P08684 whole entry): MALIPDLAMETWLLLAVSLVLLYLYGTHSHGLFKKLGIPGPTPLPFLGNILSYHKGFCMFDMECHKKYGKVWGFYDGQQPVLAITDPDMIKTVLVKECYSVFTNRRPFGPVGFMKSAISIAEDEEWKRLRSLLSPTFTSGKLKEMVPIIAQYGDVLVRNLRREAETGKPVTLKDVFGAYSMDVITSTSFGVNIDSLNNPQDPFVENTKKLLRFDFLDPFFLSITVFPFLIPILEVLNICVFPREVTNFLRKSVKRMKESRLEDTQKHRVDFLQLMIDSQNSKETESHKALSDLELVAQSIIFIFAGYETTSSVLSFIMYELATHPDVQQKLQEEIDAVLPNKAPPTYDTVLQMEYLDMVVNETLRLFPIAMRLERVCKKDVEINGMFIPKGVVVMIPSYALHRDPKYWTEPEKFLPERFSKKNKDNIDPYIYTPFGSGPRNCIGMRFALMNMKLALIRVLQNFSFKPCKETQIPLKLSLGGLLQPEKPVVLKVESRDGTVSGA

[25] = Drug metabolism in human liver microsomes assessed as 3'-propoxy-5,5'-bi(1,2,4-triazin)-3-ol formation by LC-MS/MS(CID) analysis; format: ADME, Microsome
[26] = Intrinsic clearance in mouse liver microsomes in presence of NADPH by UPLC-MS analysis; format: ADME, Microsome
[27] = Drug metabolism in human hepatocytes assessed as N-methyl-2-(3'-propoxy-5,5'-bi(1,2,4-triazin)-3-yloxy)ethanamine formation by LC-MS/MS(CID) analysis; format: ADME, cell-based, Hepatocyte
[28] = Drug metabolism in Sprague-Dawley rat feces assessed as oxygenated metabolite N-methyl-2-(3'-propoxy-5,5'-bi(1,2,4-triazin)-3-yloxy)ethanamine oxide formation at 3 mg/kg, iv by high-resolution mass spectrometry; format: ADME, organism-based; details: in vivo
[29] = Drug metabolism in Sprague-Dawley rat feces assessed as oxygenated metabolite N-methyl-2-(3'-propoxy-5,5'-bi(1,2,4-triazin)-3-yloxy)ethanamine oxide formation at 10 mg/kg, po by high-resolution mass spectrometry; format: ADME, organism-based; details: in vivo
Cytochrome P450 2C19 = Cytochrome P450 2C19 (Homo sapiens, UniProt P33261); test: Inhibition of CYP2C19 in human liver microsomes assessed as reduction in […] activity by . high-pressure liquid chromatography-tandem mass spectrometry; format: ADME
Chain of Cytochrome P450 2C19 (P33261 whole entry): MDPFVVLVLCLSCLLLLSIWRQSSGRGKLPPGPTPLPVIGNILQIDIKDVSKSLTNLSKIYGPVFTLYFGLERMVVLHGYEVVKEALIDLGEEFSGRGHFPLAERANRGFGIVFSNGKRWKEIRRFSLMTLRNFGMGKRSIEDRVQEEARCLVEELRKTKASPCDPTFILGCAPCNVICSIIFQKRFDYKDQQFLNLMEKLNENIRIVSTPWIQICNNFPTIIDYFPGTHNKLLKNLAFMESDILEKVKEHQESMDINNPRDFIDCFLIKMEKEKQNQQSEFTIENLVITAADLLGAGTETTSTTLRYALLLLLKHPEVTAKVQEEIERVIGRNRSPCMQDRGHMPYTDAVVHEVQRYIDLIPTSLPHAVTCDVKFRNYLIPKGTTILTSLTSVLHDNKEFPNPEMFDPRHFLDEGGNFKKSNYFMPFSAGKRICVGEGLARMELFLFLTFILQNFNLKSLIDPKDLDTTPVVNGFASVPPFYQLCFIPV

[30] = Metabolic stability of compound in Swiss mouse blood assessed as parent compound loss measured over 4 hrs by LC-MS analysis; format: ADME, tissue-based; details: whole blood, read-out: Drug degradation
[31] = Drug metabolism in rat hepatocytes assessed as oxygenated metabolite N-methyl-2-(3'-propoxy-5,5'-bi(1,2,4-triazin)-3-yloxy)ethanamine oxide formation by LC-MS/MS(CID) analysis; format: ADME, cell-based, Hepatocyte
[32] = Drug metabolism in Sprague-Dawley rat feces assessed as M-32 metabolite formation at 10 mg/kg, po by high-resolution mass spectrometry; format: ADME, organism-based; details: in vivo
[33] = Drug metabolism in rat liver microsomes assessed as 3'-propoxy-5,5'-bi(1,2,4-triazin)-3-ol formation by LC-MS/MS(CID) analysis; format: ADME, Microsome
Plasmodium falciparum [34] = test: Bactericidal activity against Plasmodium falciparum 3D7A at 10 times IC50; format: functional, organism-based
[35] = AUC (0 to infinity) in Swiss mouse plasma at 27 mg/kg, po measured up to 24 hrs by LC-MS analysis
[36] = Drug metabolism in Sprague-Dawley rat feces assessed as oxygenated metabolite M+16(1) formation at 10 mg/kg, po by high-resolution mass spectrometry; format: ADME, organism-based; details: in vivo
[37] = Drug metabolism in rat hepatocytes assessed as oxygenated metabolite M+16(2) formation by LC-MS/MS(CID) analysis; format: ADME, cell-based, Hepatocyte

For `CCCOc1nncc(-c2cnnc(OCCN(C)C)n2)n1`, the microsomal CLint [1] was 8 µL/min/mg, the Drug metabolism [2] was “Metabolite_Detected” and the Drug metabolism [3] was “Metabolite_Detected”. For the same molecule, the dose excreted at 4 h [4] was 0.1%, the IC50 (Plasmodium falciparum [5]) was 23 nM and the AUC(0-inf) [6] was 0.36 µM·h. The Drug metabolism [7] was “Metabolite_Detected”, the dose excreted at 24 h [8] was less than 3% and the Drug metabolism [9] was “Metabolite_Detected”. For the same molecule, the solubility kinetic [10] was greater than 100 µg/mL, the clearance [11] was 249 mL/min/kg and the Cmax [12] was 82 nM. The EC50 (Plasmodium) was 2900 nM, the AUC(0-inf) [13] was 0.658 µM·h and the ED50 (Plasmodium berghei) was 1.85 mg/kg/day. The ED90 (Plasmodium berghei) was 4.1 mg/kg/day, the Tmax [14] was 78 min and the Drug metabolism [15] was “Metabolite_Detected”. For the same molecule, the Drug metabolism [16] was “Metabolite_Detected”, the Drug metabolism [17] was “Metabolite_Detected” and the Drug metabolism [18] was “Metabolite_Detected”. It also gave an IC50 (Plasmodium falciparum [19]) of 31 nM, a half-life [20] of 23.4 min and a clearance [21] of 205 mL/min/kg. The Drug metabolism [22] was “Metabolite_Detected”, the Drug metabolism [23] was “Metabolite_Detected” and the Drug metabolism [24] was “Metabolite_Detected”. The IC50 (Cytochrome P450 3A4) was greater than 20000 nM, the Drug metabolism [25] was “Metabolite_Notdetected” and the microsomal CLint [26] was 42 µL/min/mg. The Drug metabolism [27] was “Metabolite_Notdetected”, the Drug metabolism [28] was “Metabolite_Detected” and the Drug metabolism [29] was “Metabolite_Detected”. The IC50 (Cytochrome P450 2C19) was greater than 20000 nM, the metabolised at 4 h [30] was 23% and the Drug metabolism [31] was “Metabolite_Detected”. For the same molecule, the Drug metabolism [32] was “Metabolite_Detected”, the Drug metabolism [33] was “Metabolite_Notdetected” and the Activity (Plasmodium falciparum [34]) was “Active”. The AUC(0-inf) [35] was 0.44 µM·h, the Drug metabolism [36] was “Metabolite_Detected” and the Drug metabolism [37] was “Metabolite_Detected”.
